Experimental data as given in patent publication US12343326B2, “Psychoactive medicines and their use for treating psychiatric and neurological conditions and disorders” (Transcend Therapeutics, Inc., priority 2021, dated 2025).
Read-outs that look alike come from different tables or passages of the source.

Legend:
5HT2A receptor = target: T1, 5HT2A receptor (Homo sapiens, UniProt P28223); experiment: GPCRmax screen, agonist mode; assay type: cell-based; conditions: 1 or 10 mM; threshold 30%
T1 construct: beta-galactosidase enzyme fragment (PathHunter complementation tag); host or cells: PathHunter cell lines

[1] = tested on: gene expression in amygdala, frontal cortex, hippocampus; experiment: RNA-sequencing of brain areas after a single dose; assay type: in vivo, rat
[2] = retrospective reports / meta-analysis of overdose deaths; cited from earlier work
mice = conditions: MDMA 7.5 mg/kg 30 minutes prior to extinction training (Young et al. 2015); cited from earlier work
[3] = tested on: rats (Sprague Dawley; Flinders Sensitive Line); conditions: cited from earlier work
5HT2C receptor [4] = target: T2, 5HT2C receptor (Homo sapiens, UniProt P28335); experiment: GPCRmax screen, agonist mode; assay type: cell-based; conditions: 1 or 10 mM; threshold 30%
T2 construct: beta-galactosidase enzyme fragment (PathHunter complementation tag); host or cells: PathHunter cell lines

5HT2C receptor [5] = target: T2, 5HT2C receptor; experiment: GPCRmax screen, antagonist mode; assay type: cell-based; conditions: 1 or 10 mM; threshold 50%
[6] = tested on: myelin basic protein (MBP); experiment: Immunohistochemistry of myelin basic protein; assay type: in vivo, rat; conditions: 10 mg/kg IP, 24 h
Method: Immunohistochemistry: The in-life portion of the study was conducted at WuXi Apptec (Cranbury, NJ). Sectioning and staining of brains took place at Neuroscience Associates (NSA, Knoxville, TN). […] Brains were post-fixed in PFA before shipment to NSA for processing and staining. Hemisected brains were mounted, sectioned and stained using standard protocols with myelin-basic protein primary antibody (MBP SMI-99, 1:5000, Biolegend, San Diego, CA) and anti-mouse biotinylated secondary antibody (BA-2001, Vector Laboratories, Newark, CA). Slides were imaged using a Huron Digital Pathology TissueScope LE120 whole slide scanning system. 20× objective was used with a 0.4 μm/pixel resolution.

T2 sequence (P28335 33-458): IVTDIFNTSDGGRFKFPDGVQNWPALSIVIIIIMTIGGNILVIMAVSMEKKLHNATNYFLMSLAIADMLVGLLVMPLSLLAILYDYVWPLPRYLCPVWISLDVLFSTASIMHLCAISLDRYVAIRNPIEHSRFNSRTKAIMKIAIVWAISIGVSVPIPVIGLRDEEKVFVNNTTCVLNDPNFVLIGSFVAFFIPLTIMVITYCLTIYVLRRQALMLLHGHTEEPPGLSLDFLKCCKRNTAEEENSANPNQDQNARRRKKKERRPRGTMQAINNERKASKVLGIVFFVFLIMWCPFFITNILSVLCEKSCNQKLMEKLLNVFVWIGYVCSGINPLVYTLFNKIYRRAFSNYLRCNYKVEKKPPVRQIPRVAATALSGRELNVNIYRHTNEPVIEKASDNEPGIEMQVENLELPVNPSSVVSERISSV
T1 sequence (P28223 whole entry, the tested form may be a part): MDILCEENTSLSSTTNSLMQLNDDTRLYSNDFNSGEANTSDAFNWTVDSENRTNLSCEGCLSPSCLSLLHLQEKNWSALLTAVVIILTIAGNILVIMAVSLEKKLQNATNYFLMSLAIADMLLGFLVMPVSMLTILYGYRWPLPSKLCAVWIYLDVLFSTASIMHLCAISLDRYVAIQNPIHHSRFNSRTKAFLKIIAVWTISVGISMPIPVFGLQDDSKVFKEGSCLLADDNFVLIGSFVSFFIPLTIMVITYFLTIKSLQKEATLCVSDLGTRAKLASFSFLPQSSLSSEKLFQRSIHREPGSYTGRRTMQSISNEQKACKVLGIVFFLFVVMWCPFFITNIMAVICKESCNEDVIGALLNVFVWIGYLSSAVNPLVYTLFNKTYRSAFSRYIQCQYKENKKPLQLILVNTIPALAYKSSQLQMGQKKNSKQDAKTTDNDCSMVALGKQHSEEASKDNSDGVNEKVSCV

With `CNC(C)Cc1ccc2c(c1)OCO2` (racemic) [MDMA, 3,4-Methylenedioxymethamphetamine] the agonist % activity (5HT2A receptor) was 27.5%, the “more genes regulated than methylone, frontal cortex” value ([1]; 10 mg/kg IP) was about 72% and the “genes regulated by MDMA that are also regulated by methylone, amygdala” value ([1]; 10 mg/kg IP each) was 7%. The “blood concentration in overdose deaths” value [2] was 478 to 53900 ng/mL, the “reduced freezing vs. saline (extinction recall)” value (mice) was 35% and the “reduction in immobility (FST)” value ([3]; MDMA 5 mg/kg, Flinders Sensitive Line rats) was 45%. The “reduction in immobility (FST)” value ([3]; MDMA 5 mg/kg, Sprague Dawley rats (Majumder et al. 2011)) was 45%, the “reduction in immobility (FST)” value ([3]; MDMA 10 mg/kg, Flinders Sensitive Line rats) was 93% and the “reduction in immobility (FST)” value ([3]; MDMA 10 mg/kg, Sprague Dawley rats (Majumder et al. 2011)) was 78%. The agonist % activity (5HT2C receptor [4]) was 28.0%, the “antagonist activity (% inhibition)” value (5HT2C receptor [5]) was 52.2% and the “MBP expression, basolateral nucleus of the amygdala, vs. vehicle” value [6] was “significant reduction in MBP”. The “MBP expression, central nucleus of the amygdala, vs. vehicle” value [6] was “significant reduction in MBP” and the “MBP expression, cortex (control region)” value [6] was “No change in MBP”.
